Test results from publication PMC6094173, “Releasable and traceless PEGylation of arginine-rich antimicrobial peptides” (Chemical Science, 2017).
Square brackets hold non-standard residues; d marks the D form. Peptide text beside a SMILES is read from it. * marks the point of attachment. FITC = O=C1OC2(c3ccc(O)cc3Oc3cc(O)ccc32)c2ccc(NC(=S)*)cc21; Ahx = NCCCCCC(=O)O

Columns and labels:
[1] = test system: E. coli B; type: cell-based, Escherichia coli B; settings: 16 h
Experimental: (§1) In order to validate that the PEGylated AMPs are resistant to proteolysis, [3 + 2a] (2 kDa) was incubated in ∼90% human serum (final concentration) spiked with 0.01 wt% trypsin for up to 24 h. To prevent de-PEGylation during this incubation period (i.e., to test the protease-resistance of the conjugate rather than the released AMP (known to be degradable; vide infra)), the concentration of [3 + 2a] was maintained high, and a small excess of free 2a was kept in solution. Based on Fig. 2 and 4, these conditions promote the forward PEGylation reaction and disfavor de-PEGylation. Following the incubation period (1 h, 6 h, or 24 h), serum proteins and trypsin were removed to stop proteolysis, and the integrity of the AMP 3 within the conjugate was evaluated via its anti-proliferative effect on E. coli. […]
reaction by HPLC using the fluorescence detector. Kinetics were monitored in triplicate. […]
To determine peptide content, a known mass of conjugate was dissolved in 500 µL D2O, and the absorbance of the solution at 452 nm (the FITC dye on the peptide) was compared to a standard curve obtained with the pure peptide. Then, to deter mine the number of moles of mPEG within this solution, a small amount (5 µL) of dimethyl sulfoxide was quantitatively added to a known volume of the D2O solution, and a 1H NMR spectrum recorded. […]

[2] = test system: trypsin; assay: Resistance to proteolysis in human serum spiked with trypsin, read out by antibacterial activity; type: in vitro ADME; settings: ∼90% human serum with 0.01 wt% trypsin, r.t.; read-out anti-proliferative effect on E. coli
Experimental: as §1
[…] 5 h t o obtain mid-logarithmic phase organisms (10^9 cfu· mL –1). […] After this period, proteins were immediately removed by addition of 1.5 mL acetonitrile, sedimentation of precipitate by centrifugation, quantitative recovery of the supernatant, and drying by freeze-drying (FreeZone 4.5, Labconco). […] After addition of analyte to the w el l, the mi cr op lat e was in cub at ed at 37 °C for 16 h with shaking, and growth inhibition was determined by measuring absorbance at 620 nm using a Cytation 5 multi- mode microplate reader (BioTek Inc., VT). […]

## CC[C@@H](C)[C@@H](NC(=O)[C@H](CCCNC(=N)N)NC(=O)[C@H](CCC(N)=O)NC(=O)[C@@H](NC(=O)[C@H](NC(=O)[C@H](CCCNC(=N)N)NC(=O)[C@H](CCCCN)NC(=O)[C@H](Cc1ccccc1)NC(=O)CNC(=O)CCCCCNC(=S)Nc1ccc2c(c1)C(=O)OC21c2ccc(O)cc2Oc2cc(O)ccc21)[C@H](C)CC)C(C)C)C(=O)N[C@@H](CCCCN)C(=O)N[C@@H](CC(=O)O)C(=O)N[C@@H](Cc1ccccc1)C(=O)N[C@H](CC(C)C)C(=O)N[C@@H](CCCNC(=N)N)C(=O)N[C@@H](CC(N)=O)C(=O)N[C@@H](CC(C)C)C(=O)N[C@H](C(N)=O)C(C)C [compound 3] ({FITC-Ahx}-GFKR[dI]VQR[dI]KDF[dL]RNLV-NH2)
[1]
  IC50: 8 ± 5 µM
[2]
  Time to loss of antimicrobial properties in trypsin-spiked serum: less than 6 h
